According to ChEMBL document CHEMBL5257109, “Development of actein derivatives as potent anti-triple negative breast cancer agents” (Bioorg Med Chem Lett, 2023):
Calls of active or inactive are those of the source. The calls are words filed in the database; no cut-off is given here.

Assays:
HCC1806 [1] = experiment: Antiproliferative activity against human HCC1806 cells assessed as inhibition of cell growth incubated for 36 hrs by SRB assay; type: functional, cell-based; conditions: for IC50: HCC1806, 36 h
MDA-MB-231 [2] = experiment: Antiproliferative activity against human MDA-MB-231 cells assessed as inhibition of cell growth incubated for 36 hrs by SRB assay; type: functional, cell-based; conditions: for IC50: MDA-MB-231, 36 h
HCC1806 [3] = experiment: Antiproliferative activity against human HCC1806 cells assessed as inhibition of cell growth at 20 uM incubated for 36 hrs by SRB assay relative to control; type: functional
MDA-MB-231 [4] = experiment: Antiproliferative activity against human MDA-MB-231 cells assessed as inhibition of cell growth at 20 uM incubated for 36 hrs by SRB assay relative to control; type: functional

IC50 (HCC1806 [1]) [µM] | IC50 (MDA-MB-231 [2]) [µM] | Structure (SMILES) | inhibition at 20 µM (HCC1806 [3]) [%] | inhibition at 20 µM (MDA-MB-231 [4]) [%] | Activity (HCC1806 [1]) | Activity (MDA-MB-231 [2])
> 20 | > 20 | CC(=O)O[C@@H]1[C@@H](OC(C)=O)[C@H](O[C@H]2CC[C@]34C[C@]35C[C@@H](OC(C)=O)[C@]3(C)[C@H]6[C@H](C)C[C@]7(O[C@H](OC(=O)c8ccccc8)[C@@]8(C)O[C@@H]78)O[C@H]6C[C@@]3(C)[C@@H]5CC[C@H]4C2(C)C)OC[C@H]1OC(C)=O | – | – | – | –
> 20 | > 20 | CC(=O)O[C@@H]1O[C@]2(C[C@@H](C)[C@H]3[C@H](C[C@@]4(C)[C@@H]5CC[C@H]6C(C)(C)[C@@H](O[C@@H]7OC[C@@H](O)[C@H](O)[C@H]7O)CC[C@@]67C[C@@]57C[C@@H](OC(C)=O)[C@]34C)O2)[C@@H]2O[C@]12C | – | – | – | –
> 20 | > 20 | CC(=O)O[C@@H]1[C@@H](OC(C)=O)[C@H](O[C@H]2CC[C@]34C[C@]35C[C@H](F)[C@]3(C)[C@H]6[C@H](C)C[C@]7(OC(=O)[C@@]8(C)O[C@@H]78)O[C@H]6C[C@@]3(C)[C@@H]5CC[C@H]4C2(C)C)OC[C@H]1OC(C)=O | – | – | – | –
> 20 | > 20 | COc1ccc(C(=O)O[C@H]2O[C@]3(C[C@@H](C)[C@H]4[C@H](C[C@@]5(C)[C@@H]6CC[C@H]7C(C)(C)[C@@H](O[C@@H]8OC[C@@H](OC(C)=O)[C@H](OC(C)=O)[C@H]8OC(C)=O)CC[C@@]78C[C@@]68C[C@@H](OC(C)=O)[C@]45C)O3)[C@@H]3O[C@]23C)cc1 | – | – | – | –
> 20 | > 20 | COC1O[C@]2(C[C@@H](C)[C@H]3[C@H](C[C@@]4(C)[C@@H]5CC[C@H]6C(C)(C)[C@@H](O[C@@H]7OC[C@@H](O)[C@H](O)[C@H]7O)CC[C@@]67C[C@@]57C[C@@H](OC(C)=O)[C@]34C)O2)[C@@H]2O[C@]12C (some centres undefined) | – | – | – | –
> 20 | > 20 | C[C@@H]1C[C@]2(OC(O)[C@@]3(C)O[C@@H]23)O[C@H]2C[C@@]3(C)[C@@H]4CC[C@H]5C(C)(C)[C@@H](O[C@@H]6OC[C@@H](O)[C@H](O)[C@H]6O)CC[C@@]56C[C@@]46C[C@@H](O)[C@]3(C)[C@@H]12 (some centres undefined) | – | – | – | –
> 20 | > 20 | CC(=O)O[C@@H]1[C@@H](OC(C)=O)[C@H](O[C@H]2CC[C@]34C[C@]35C[C@@H](OC(C)=O)[C@]3(C)[C@H]6[C@H](C)C[C@]7(OC(=O)[C@@]8(C)O[C@@H]78)O[C@H]6C[C@@]3(C)[C@@H]5CC[C@H]4C2(C)C)OC[C@H]1OC(C)=O | – | – | – | –
3.42 | > 20 | CC(=O)O[C@@H]1[C@@H](OC(C)=O)[C@H](O[C@H]2CC[C@]34C[C@]35C[C@@H](OC(C)=O)[C@]3(C)[C@H]6[C@H](C)C[C@]7(OC(O)[C@@]8(C)O[C@@H]78)O[C@H]6C[C@@]3(C)[C@@H]5CC[C@H]4C2(C)C)OC[C@H]1OC(C)=O (some centres undefined) | > 50 | > 50 | – | –
> 20 | > 20 | CC(=O)O[C@@H]1[C@@H](OC(C)=O)[C@H](O[C@H]2CC[C@]34C[C@]35C[C@@H](OC(C)=O)[C@]3(C)[C@H]6[C@H](C)C[C@]7(O[C@H](OC(=O)/C=C/c8ccc(OC(F)(F)F)cc8)[C@@]8(C)O[C@@H]78)O[C@H]6C[C@@]3(C)[C@@H]5CC[C@H]4C2(C)C)OC[C@H]1OC(C)=O | – | – | – | –

Further lines, the compound ahead of its results:

Structure (SMILES) | IC50 (HCC1806 [1]) [µM] | IC50 (MDA-MB-231 [2]) [µM] | inhibition at 20 µM (HCC1806 [3]) [%] | inhibition at 20 µM (MDA-MB-231 [4]) [%] | Activity (HCC1806 [1]) | Activity (MDA-MB-231 [2])
C[C@@H]1C[C@]2(OC(=O)[C@@]3(C)O[C@@H]23)O[C@H]2C[C@@]3(C)[C@@H]4CC[C@H]5C(C)(C)[C@@H](O[C@@H]6OC[C@@H](O)[C@H](O)[C@H]6O)CC[C@@]56C[C@@]46C[C@H](F)[C@]3(C)[C@@H]12 | > 20 | > 20 | – | – | – | –
CC(=O)O[C@H]1O[C@]2(C[C@@H](C)[C@H]3[C@H](C[C@@]4(C)[C@@H]5CC[C@H]6C(C)(C)[C@@H](O[C@@H]7OC[C@@H](O)[C@H](O)[C@H]7O)CC[C@@]67C[C@@]57C[C@@H](OC(C)=O)[C@]34C)O2)[C@@H]2O[C@]12C | > 20 | > 20 | – | – | – | –
CC(=O)O[C@@H]1[C@@H](OC(C)=O)[C@H](O[C@H]2CC[C@]34C[C@]35CC(=O)[C@]3(C)[C@H]6[C@H](C)C[C@]7(O[C@@H](OC(=O)CCC(=O)O)[C@@]8(C)O[C@@H]78)O[C@H]6C[C@@]3(C)[C@@H]5CC[C@H]4C2(C)C)OC[C@H]1OC(C)=O | 10.7 | 12.1 | > 50 | > 50 | – | –
CC(=O)O[C@@H]1[C@@H](OC(C)=O)[C@H](O[C@H]2CC[C@]34C[C@]35C[C@@H](OC(C)=O)[C@]3(C)[C@H]6[C@H](C)C[C@]7(O[C@H](OC(=O)c8ccc([N+](=O)[O-])cc8)[C@@]8(C)O[C@@H]78)O[C@H]6C[C@@]3(C)[C@@H]5CC[C@H]4C2(C)C)OC[C@H]1OC(C)=O | > 20 | > 20 | – | – | – | –
C[C@@H]1C[C@]2(OC(O)[C@@]3(C)O[C@@H]23)O[C@H]2C[C@@]3(C)[C@@H]4CC[C@H]5C(C)(C)[C@@H](O[C@@H]6OC[C@@H](O)[C@H](O)[C@H]6O)CC[C@@]56C[C@@]46CC(=O)[C@]3(C)[C@@H]12 (some centres undefined) | > 20 | > 20 | – | – | – | –
CC(=O)O[C@@H]1[C@@H](OC(C)=O)[C@H](O[C@H]2CC[C@]34C[C@]35CC(=O)[C@]3(C)[C@H]6[C@H](C)C[C@]7(OC(=O)[C@@]8(C)O[C@@H]78)O[C@H]6C[C@@]3(C)[C@@H]5CC[C@H]4C2(C)C)OC[C@H]1OC(C)=O | – | – | – | – | inactive | inactive
CC(=O)O[C@@H]1[C@@H](OC(C)=O)[C@H](O[C@H]2CC[C@]34C[C@]35CC(=O)[C@]3(C)[C@H]6[C@H](C)C[C@]7(OC(OC(=O)c8ccccc8F)[C@@]8(C)O[C@@H]78)O[C@H]6C[C@@]3(C)[C@@H]5CC[C@H]4C2(C)C)OC[C@H]1OC(C)=O (some centres undefined) | – | – | – | – | inactive | inactive
CC(=O)O[C@@H]1[C@@H](OC(C)=O)[C@H](O[C@H]2CC[C@]34C[C@]35C=C[C@]3(C)[C@H]6[C@H](C)C[C@]7(OC(=O)[C@@]8(C)O[C@@H]78)O[C@H]6C[C@@]3(C)[C@@H]5CC[C@H]4C2(C)C)OC[C@H]1OC(C)=O | 13.6 | > 20 | > 50 | > 50 | – | –
CC(=O)OC1O[C@]2(C[C@@H](C)[C@H]3[C@H](C[C@@]4(C)[C@@H]5CC[C@H]6C(C)(C)[C@@H](O[C@@H]7OC[C@@H](OC(C)=O)[C@H](OC(C)=O)[C@H]7OC(C)=O)CC[C@@]67C[C@@]57CC(=O)[C@]34C)O2)[C@@H]2O[C@]12C (some centres undefined) | – | – | – | – | inactive | inactive
CC(=O)O[C@@H]1C[C@@]23C[C@@]24CC[C@H](O[C@@H]2OC[C@@H](O)[C@H](O)[C@H]2O)C(C)(C)[C@@H]4CC[C@H]3[C@]2(C)C[C@@H]3O[C@]4(C[C@@H](C)[C@@H]3[C@@]12C)O[C@@H](OC(=O)CCC(=O)O)[C@@]1(C)O[C@@H]41 | > 20 | > 20 | – | – | – | –
CC(=O)OC1O[C@]2(C[C@@H](C)[C@H]3[C@H](C[C@@]4(C)[C@@H]5CC[C@H]6C(C)(C)[C@@H](O[C@@H]7OC[C@@H](OC(C)=O)[C@H](OC(C)=O)[C@H]7OC(C)=O)CC[C@@]67C[C@@]57C[C@@H](OC(C)=O)[C@]34C)O2)[C@@H]2O[C@]12C (some centres undefined) | 8.21 | > 20 | > 50 | > 50 | – | –
CC(=O)O[C@@H]1[C@@H](OC(C)=O)[C@H](O[C@H]2CC[C@]34C[C@]35C[C@@H](OC(C)=O)[C@]3(C)[C@H]6[C@H](C)C[C@]7(O[C@H](OC(=O)c8ccccc8F)[C@@]8(C)O[C@@H]78)O[C@H]6C[C@@]3(C)[C@@H]5CC[C@H]4C2(C)C)OC[C@H]1OC(C)=O | > 20 | > 20 | – | – | – | –
CO[C@H]1O[C@]2(C[C@@H](C)[C@H]3[C@H](C[C@@]4(C)[C@@H]5CC[C@H]6C(C)(C)[C@@H](O[C@@H]7OC[C@@H](OC(C)=O)[C@H](OC(C)=O)[C@H]7OC(C)=O)CC[C@@]67C[C@@]57C[C@@H](OC(C)=O)[C@]34C)O2)[C@@H]2O[C@]12C | > 20 | > 20 | – | – | – | –
CO[C@@H]1O[C@]2(C[C@@H](C)[C@H]3[C@H](C[C@@]4(C)[C@@H]5CC[C@H]6C(C)(C)[C@@H](O[C@@H]7OC[C@@H](OC(C)=O)[C@H](OC(C)=O)[C@H]7OC(C)=O)CC[C@@]67C[C@@]57C[C@@H](OC(C)=O)[C@]34C)O2)[C@@H]2O[C@]12C | > 20 | > 20 | – | – | – | –
CC(=O)O[C@@H]1C[C@@]23C[C@@]24CC[C@H](O[C@@H]2OC[C@@H](O)[C@H](O)[C@H]2O)C(C)(C)[C@@H]4CC[C@H]3[C@]2(C)C[C@@H]3O[C@]4(C[C@@H](C)[C@@H]3[C@@]12C)OC(=O)[C@@]1(C)O[C@@H]41 | > 20 | > 20 | – | – | – | –
CC(=O)O[C@@H]1[C@@H](OC(C)=O)[C@H](O[C@H]2CC[C@]34C[C@]35CC(=O)[C@]3(C)[C@H]6[C@H](C)C[C@]7(OC(O)[C@@]8(C)O[C@@H]78)O[C@H]6C[C@@]3(C)[C@@H]5CC[C@H]4C2(C)C)OC[C@H]1OC(C)=O (some centres undefined) | 8.8 | 13 | > 50 | > 50 | – | –
C[C@@H]1C[C@]2(OC(=O)[C@@]3(C)O[C@@H]23)O[C@H]2C[C@@]3(C)[C@@H]4CC[C@H]5C(C)(C)[C@@H](O[C@@H]6OC[C@@H](O)[C@H](O)[C@H]6O)CC[C@@]56C[C@@]46C=C[C@]3(C)[C@@H]12 | > 20 | > 20 | – | – | – | –
CC(=O)O[C@@H]1[C@@H](OC(C)=O)[C@H](O[C@H]2CC[C@]34C[C@]35CC(=O)[C@]3(C)[C@H]6[C@H](C)C[C@]7(OC(OC(=O)c8ccccc8)[C@@]8(C)O[C@@H]78)O[C@H]6C[C@@]3(C)[C@@H]5CC[C@H]4C2(C)C)OC[C@H]1OC(C)=O (some centres undefined) | – | – | – | – | inactive | inactive
